The subject of one data set is A2780 cells. The experiment in a line: Cell cycle analysis (PI staining). It counts as cell-based, human. The conditions noted are these: A2780 synchronized with thymidine; IC50 of JHOR11 or 0.1 µM doxorubicin; 5-32 h, relative to DMSO. The procedure: To understand if the complex also presents a cytostatic effect, the cell cycle of A2780 cells was analyzed by DNA staining with PI, after double synchronization with thymidine at the S phase.
The cell cycle analysis was performed by DNA staining with PI according to procedures previously described with few modifications. A2780 cells were seeded in 6-well plates in a cell density of 4 × 10^5 cells/well and the cell cycle was synchronized in the S-phase by double blocking with 2 mM thymidine. […] After 5 h, 9 h, 24 h or 32 h, cells were detached, fixed with 80% (v/v) ethanol, incubated with 50 mg/mL RNase A (NZYtech, Lisbon, Portugal) and stained with […] PI (Thermo Fisher Scientific). The fluorescence of each sample was analyzed in an Attune acoustic focusing cytometer and respective software (Thermo Fisher Scientific).

A further data set has as its system zebrafish embryos. Put plainly: In vivo toxicity assessment using zebrafish embryos. The conditions noted are these: zebrafish embryos exposed from 72 hpf, 96 h. The procedure: The toxicity of the JHOR10 and JHOR11 compounds was assayed in zebrafish embryos. There was a NOEC (No Observed Effect Concentration) in the case of JHOR11 of 80 µM (Table 2). The NOEC is the concentration used for the xenotransplantation experiments in order not to affect the normal development of the embryos and being able, in parallel, to assay the effect of the compound over the injected cells. Apart from that, the mortality assayed in the toxicity assays supports the concentration obtained in the NOEC, with a low mortality of the embryos when they are incubated with JHOR11 (Figure 13 and Figure 14).
Wild-type zebrafish were housed in 30 L tanks within a water recirculation system under controlled physicochemical conditions: pH 7–7.5, temperature 26 ± 2 °C, conductivity 600 µS/cm and light/dark photoperiod of 14/10 h. The adult fish were fed Gemma Micro 300 (Skretting) twice a day. Fertilized eggs were collected after natural spawning and stored in Petri dishes for 48 h until being injected, or 72 h until being exposed to different concentrations of ruthenium compounds.
At 72 h post-fertilization (hpf), the embryos were exposed to increasing concentrations of two ruthenium compounds to determine toxicological estimates: LC50 with no observed effect concentration (NOEC) and lowest observed effect concentration (LOEC). The acute toxicity assessment of the compounds was performed following the standards of the OECD Test Guideline Program.
The embryos were individually transferred to 96-well plates containing 100 µL of each desired concentration. The plates were then placed in an incubator with a temperature of 26 °C and a photoperiod of 14 h of light and 10 h of darkness. The duration of the experiment was 96 h, and observations were made every 24 h recording the four lethal effects indicated by the OECD: embryo coagulation, absence of somite formation, absence of separation of the yolk tail and absence of heartbeat. All compounds were dissolved with dimethylsulfoxide (DMSO) with a final concentration of 1%. In each test, seven concentrations were analyzed for each compound, these being: JHOR10 (10, 20, 30, 40, 50, 55, 60 µM) and JHOR11 (50, 80, 100, 140, 200, 300, 400 µM).
For the evaluation of toxicity, the mortality data were analyzed by probit analysis with the ToxRat software (ToxRat Solutions. 2003. ToxRat®. Software for the statistical analysis of biotests. Alsdorf, Germany).

Data set [1] has as its system doxorubicin-resistant HCT116 (HCT116-Dox). The conditions noted are these: read-out: Relative IC50, HCT116-Dox; 48 h incubation, MTS. How it is done: (§1) The cytotoxic potential of the complexes was evaluated by assessing their viability using the 3-(4,5-dimethylthiazol-2-yl)-5-(3-carboxymethoxyphenyl)-2-(4-sulfophenyl)-2H tetrazolium, inner salt (MTS) colorimetric assay in three tumor cell lines—ovarian carcinoma, A2780, colorectal carcinoma, HCT116, and colorectal carcinoma resistant to doxorubicin, HCT116-Dox and in normal human primary dermal fibroblasts (Figure 1 and Figure S7).
(§2) Normal dermal human fibroblasts, colorectal carcinoma cell line HCT116 and ovarian carcinoma cell line A2780 were acquired from ATCC (Manassas, VA, USA). HCT116 cell lines resistant to doxorubicin (HCT116-Dox) were derived from the HCT116 cell line, as previously described. Fibroblasts and HCT116 cells were cultured in Dulbecco’s modified Eagle medium (DMEM, Thermo Fisher Scientific) and A2780 cell line was cultured on Roswell Park Memorial institute 1640 (RPMI-1640, Thermo Fisher Scientific). Both media were supplemented with 10% (v/v) fetal bovine serum (FBS, Thermo Fisher Scientific) and a mixture of 100 U/mL penicillin and […] streptomycin. The supplemented media are referred to from this point on as DMEM or RPMI for simplicity.

Data set [2] concerns normal human dermal fibroblasts. The conditions noted are these: read-out: Relative IC50, Fibroblasts; 48 h incubation, MTS. The procedure:
as §1, §2

Data set [3] relates to A2780 ovarian carcinoma cell line. The experiment in a line: MTS antiproliferative assay, A2780. It counts as cell-based, human. The conditions noted are these: 48 h incubation, MTS; read-out: Relative IC50, A2780.
Description: (§3) Normal dermal human fibroblasts, colorectal carcinoma cell line HCT116 and ovarian carcinoma cell line A2780 were acquired from ATCC (Manassas, VA, USA). […] Fibroblasts and HCT116 cells were cultured in Dulbecco’s modified Eagle medium (DMEM, Thermo Fisher Scientific) and A2780 cell line was cultured on Roswell Park Memorial institute 1640 (RPMI-1640, Thermo Fisher Scientific). Both media were supplemented with 10% (v/v) fetal bovine serum (FBS, Thermo Fisher Scientific) and a mixture of 100 U/mL penicillin and 100 mg/mL streptomycin. The supplemented media are referred to from this point on as DMEM or RPMI for simplicity. […] All experiments underwent at 37 °C, 5% (v/v) CO2 and 99% (v/v) humidity in the dark.
(§4) Cells were seeded in a 96-well plate in a density of 7500 cells/well, and after 24 h was submitted to a concentration range between 0.1–50 µM of complexes JHOR10 and JHOR11. DMSO with a 0.1% (v/v) concentration was used as vector control and cisplatin was used as positive control in all replicates. After 48 h incubation, cellular viability was inferred with the Cell Titer 96® Aqueous One solution cell proliferation assay (Promega, Madison, WI, USA) according to the manufacturer’s instructions and procedures previously described [18, 40]. The absorbance of the produced Formazan was quantified with a Tecan microplate reader, Infinite M200 (Tecan, Mannedorf, Switzerland) and the analysis of the dose–response curves to determine the relative IC50 was performed with GraphPad Prism 8.2.1 software (GraphPad Software, La Jolla, CA, USA).
The test system of data set [4] is HCT116 colorectal carcinoma cell line. Put plainly: MTS antiproliferative assay, HCT116. It counts as cell-based, human. The conditions noted are these: 48 h incubation, MTS; read-out: Relative IC50, HCT116.
Description: as §3, §4
The nature of data set [5]: Stability in DMSO-d6-D2O solution by 1H NMR. It counts as physicochemical. The conditions noted are these: DMSO-d6-D2O 3:7 (v/v), 110 mM chloride. The procedure: To evaluate the stability of complexes in a cell culture medium, powdered complexes were first solubilized in DMSO and then immediately in DMEM, in order to guarantee that no more than 0.1% (v/v) DMSO was present in the medium. […] In addition, the stability of the complexes in solution was investigated by ^1H NMR spectroscopy. The ruthenium complexes were dissolved in DMSO-d6-D2O, in a 3:7 ratio (v/v) with a 110 mM chloride concentration, and the ^1H NMR spectra was recorded immediately and after 48 h. […] This observation is in agreement with the M–Cl aquation processes described for several metallic compounds, such as cisplatin [23]. After 48 h, the ^1H NMR spectrum of JHOR10 was unchanged.
The stability of complexes was evaluated in DMEM (Dulbecco’s modified Eagle’s medium). Powdered complexes JHOR10 and JHOR11 were solubilized in DMSO and then immediately diluted in DMEM without phenol red (Thermo Fisher Scientific, Waltham, MA, USA) to a final concentration of 100 µM, assuring that the final concentration of DMSO was not higher than 0.1% (v/v). The UV-visible spectrum was measured after an incubation at 37 °C for 24 or 48 h (DMEM) in a wavelength range between 260 and 800 nm, using a quartz cuvette with 1 cm path length. A total of 2 mg of each compound was dissolved in DMSOd6-D2O 3:7 (v/v) 110 mM chloride concentration (NaCl), and the ^1H NMR were recorded at 0 h and 48 h on a Bruker Avance III 400 MHz.

Each structure is given as a SMILES string.

On to `COc1cccc2c1C(=O)c1c(O)c3c(c(O)c1C2=O)C[C@@](O)(C(=O)CO)C[C@@H]3O[C@H]1C[C@H](N)[C@H](O)[C@H](C)O1` [doxorubicin, reference compound], for which the cell cycle effect result in the data set on A2780 cells is “cell cycle arrest at G2/M phase”.
Usually LC50 stands for the concentration that kills 50% of the test population. What is called IC50 is the point on the concentration scale where inhibition reaches its midpoint. Consider `Cc1ccc(C(C)C)cc1.O=C1C(=O)c2cccnc2-c2ncccc21.O=S(=O)([O-])C(F)(F)F.[Cl][Ru+]` [JHOR10, [Ru{p-C6H4(Me)(iPr)}{(Dione)Cl][CF3SO3]], for which the 50% lethal concentration (LC50) with zebrafish embryos was determined as 29.8 µM. Moreover, the “LOEC (Lowest Observed Effect Concentration)” value in the data set on zebrafish embryos was determined as 20.00 µM. For the same compound, the “NOEC (No Observed Effect Concentration)” value with zebrafish embryos stood at 10.00 µM. The 50% inhibitory concentration (IC50) in data set [1] was more than 50 µM; in data set [2], more than 50 µM; in data set [3] it was 5.3 ± 0.3 µM; in data set [4] it was 25.7 ± 1.3 µM. Moreover, the “stability in solution by 1H NMR after 48 h” value in data set [5] (48 h) was “unchanged”. In addition, in data set [5] (t = 0 h), the “stability in solution by 1H NMR at t = 0 h” value was “new sets of resonances appeared”.
`N.N.[Cl][Pt][Cl]` [Cisplatin, reference compound]: the values for the concentration for half-maximal inhibition (IC50) in data set [3] and in data set [4] were 1.9 ± 0.2 µM and 15.6 ± 5.3 µM, respectively.

The values above are taken from article PMC9656482, “In Vitro and In Vivo Biological Activity of Ruthenium 1,10-Phenanthroline-5,6-dione Arene Complexes” (International Journal of Molecular Sciences, 2022).
